# Test results from patent publication US20260262643A1, “HERBICIDAL BENZOXAZINES” (FMC CORPORATION, priority 2022, published 2026).
# Columns and labels:
# wheat [1] = test: Test C postemergence; assay type: in vivo, Triticum aestivum; conditions: 10 days
# Procedure, shortened: (§1)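 Test material, in non-phytotoxic solvent with surfactant, was sprayed on the soil directly after seeding (preemergence) or on young plants of 2–10 cm with one to two leaves (postemergence). Greenhouse, 10 days; 0–100 visual control scale.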
# barnyardgrass [2] = test: Test D flooded paddy test; assay type: in vivo, Echinochloa crus-galli; conditions: 250 g ai/ha, applied to paddy water, visual rating after 13 to 14 days, scale 0 to 100 (0 no effect, 100 complete control)
# Procedure, shortened: (§2)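 Compounds go straight into paddy water over 2-leaf plants in pots flooded to 3 cm. Greenhouse holding lasts 13 to 14 days. Injury is scored by eye against controls from 0 (none) to 100 (complete control).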
# soybean [3] = test: Test C postemergence; assay type: in vivo, Glycine max; conditions: 10 days
# Procedure, shortened: as §1
# barnyardgrass [4] = test: Test C preemergence; assay type: in vivo, Echinochloa crusgalli; conditions: 0 to 100 scale (0 no effect, 100 complete control)
# Procedure, shortened: as §1
# blackgrass [5] = test: Test C preemergence; assay type: in vivo, Alopecurus myosuroides; conditions: 0 to 100 scale (0 no effect, 100 complete control)
# Procedure, shortened: as §1
# corn [6] = test: Test C postemergence; assay type: in vivo, Zea mays; conditions: 10 days
# Procedure, shortened: as §1
# barnyardgrass [7] = test: Test C postemergence; assay type: in vivo, Echinochloa crusgalli; conditions: 10 days
# Procedure, shortened: as §1
# green foxtail [8] = test: Test C postemergence; assay type: in vivo, Setaria viridis; conditions: 10 days
# Procedure, shortened: as §1
# sedge, umbrella = test: Test D flooded paddy test; assay type: in vivo, Cyperus difformis; conditions: 250 g ai/ha, applied to paddy water, visual rating after 13 to 14 days, scale 0 to 100 (0 no effect, 100 complete control)
# Procedure, shortened: as §2
# kochia [9] = test: Test C postemergence; assay type: in vivo, Bassia scoparia; conditions: 10 days
# Procedure, shortened: as §1
# blackgrass [10] = test: Test C postemergence; assay type: in vivo, Alopecurus myosuroides; conditions: 10 days
# Procedure, shortened: as §1
# oat, wild [11] = test: Test C preemergence; assay type: in vivo, Avena fatua; conditions: 0 to 100 scale (0 no effect, 100 complete control)
# Procedure, shortened: as §1
# kochia [12] = test: Test C preemergence; assay type: in vivo, Bassia scoparia; conditions: 0 to 100 scale (0 no effect, 100 complete control)
# Procedure, shortened: as §1
# ryegrass, Italian [13] = test: Test C postemergence; assay type: in vivo, Lolium multiflorum; conditions: 10 days
# Procedure, shortened: as §1
# soybean [14] = test: Test C preemergence; assay type: in vivo, Glycine max; conditions: 0 to 100 scale (0 no effect, 100 complete control)
# Procedure, shortened: as §1
# green foxtail [15] = test: Test C preemergence; assay type: in vivo, Setaria viridis; conditions: 0 to 100 scale (0 no effect, 100 complete control)
# Procedure, shortened: as §1
# pigweed, palmer [16] = test: Test C postemergence; assay type: in vivo, Amaranthus palmeri; conditions: 10 days
# Procedure, shortened: as §1
# ragweed [17] = test: Test C postemergence; assay type: in vivo, Ambrosia artemisiifolia; conditions: 10 days
# Procedure, shortened: as §1
# wheat [18] = test: Test C preemergence; assay type: in vivo, Triticum aestivum; conditions: 0 to 100 scale (0 no effect, 100 complete control)
# Procedure, shortened: as §1
# horseweed = test: Test C postemergence; assay type: in vivo, Erigeron canadensis; conditions: 10 days
# Procedure, shortened: as §1
# ryegrass, Italian [19] = test: Test C preemergence; assay type: in vivo, Lolium multiflorum; conditions: 0 to 100 scale (0 no effect, 100 complete control)
# Procedure, shortened: as §1
# ducksalad = test: Test D flooded paddy test; assay type: in vivo, Heteranthera limosa; conditions: 250 g ai/ha, applied to paddy water, visual rating after 13 to 14 days, scale 0 to 100 (0 no effect, 100 complete control)
# Procedure, shortened: as §2
# ragweed [20] = test: Test C preemergence; assay type: in vivo, Ambrosia artemisiifolia; conditions: 0 to 100 scale (0 no effect, 100 complete control)
# Procedure, shortened: as §1
# pigweed, palmer [21] = test: Test C preemergence; assay type: in vivo, Amaranthus palmeri; conditions: 0 to 100 scale (0 no effect, 100 complete control)
# Procedure, shortened: as §1
# corn [22] = test: Test C preemergence; assay type: in vivo, Zea mays; conditions: 0 to 100 scale (0 no effect, 100 complete control)
# Procedure, shortened: as §1
# rice = test: Test D flooded paddy test; assay type: in vivo, Oryza sativa; conditions: 250 g ai/ha, applied to paddy water, visual rating after 13 to 14 days, scale 0 to 100 (0 no effect, 100 complete control)
# Procedure, shortened: as §2
# oat, wild [23] = test: Test C postemergence; assay type: in vivo, Avena fatua; conditions: 10 days
# Procedure, shortened: as §1
# [24] = 125 g ai/ha, postemergence, 0 to 100 scale, 0 no effect, 100 complete control
# [25] = Postemergence, 500 g ai/ha, visual 0 to 100 scale (0 no effect, 100 complete control)
# [26] = Preemergence, 500 g ai/ha, visual rating after 10 days
# [27] = Test C, preemergence, 125 g ai/ha
compound,measurement,setting,value
COc1cc(C(=O)N2C[C@H](C)Oc3c(Cl)cccc32)cc(-n2cnc(C(C)(C)C)n2)c1 [Compound 213],"Plant response rating, Wheat",wheat [1]; [24],20
same,"Plant response rating, Wheat",wheat [1]; [25],20
same,"Plant response rating, Barnyardgrass (Flood)",barnyardgrass [2],20
same,"Plant response rating, Soybean",soybean [3]; [24],100
same,"Plant response rating, Soybean",soybean [3]; [25],100
same,"Plant response rating, Barnyardgrass",barnyardgrass [4]; [26],100
same,Barnyardgrass plant response rating,barnyardgrass [4]; [27],60
same,"Plant response rating, Blackgrass",blackgrass [5]; [26],80
same,Blackgrass plant response rating,blackgrass [5]; [27],60
same,"Plant response rating, Corn",corn [6]; [24],10
same,"Plant response rating, Corn",corn [6]; [25],20
same,"Plant response rating, Barnyardgrass",barnyardgrass [7]; [24],20
same,"Plant response rating, Barnyardgrass",barnyardgrass [7]; [25],30
same,"Plant response rating, Foxtail, Green",green foxtail [8]; [24],40
same,"Plant response rating, Foxtail, Green",green foxtail [8]; [25],70
same,"Plant response rating, Sedge, Umbrella (Flood)","sedge, umbrella",100
same,"Plant response rating, Kochia",kochia [9]; [24],90
same,"Plant response rating, Kochia",kochia [9]; [25],90
same,"Plant response rating, Blackgrass",blackgrass [10]; [24],0
same,"Plant response rating, Blackgrass",blackgrass [10]; [25],70
same,"Plant response rating, Oat, Wild","oat, wild [11]; [26]",70
same,"Oat, Wild plant response rating","oat, wild [11]; [27]",10
same,"Plant response rating, Kochia",kochia [12]; [26],100
same,Kochia plant response rating,kochia [12]; [27],30
same,"Plant response rating, Ryegrass, Italian","ryegrass, Italian [13]; [24]",30
same,"Plant response rating, Ryegrass, Italian","ryegrass, Italian [13]; [25]",60
same,"Plant response rating, Soybean",soybean [14]; [26],100
same,Soybean plant response rating,soybean [14]; [27],50
same,"Plant response rating, Foxtail, Green",green foxtail [15]; [26],100
same,"Foxtail, Green plant response rating",green foxtail [15]; [27],100
same,"Plant response rating, Pigweed, Palmer","pigweed, palmer [16]; [24]",100
same,"Plant response rating, Pigweed, Palmer","pigweed, palmer [16]; [25]",100
same,"Plant response rating, Ragweed",ragweed [17]; [24],30
same,"Plant response rating, Ragweed",ragweed [17]; [25],80
same,"Plant response rating, Wheat",wheat [18]; [26],90
same,Wheat plant response rating,wheat [18]; [27],10
same,"Plant response rating, Horseweed",horseweed; [24],20
same,"Plant response rating, Horseweed",horseweed; [25],30
same,"Plant response rating, Ryegrass, Italian","ryegrass, Italian [19]; [26]",90
same,"Ryegrass, Italian plant response rating","ryegrass, Italian [19]; [27]",90
same,"Plant response rating, Ducksalad (Flood)",ducksalad,90
same,"Plant response rating, Ragweed",ragweed [20]; [26],30
same,Ragweed plant response rating,ragweed [20]; [27],0
same,"Plant response rating, Pigweed, Palmer","pigweed, palmer [21]; [26]",100
same,"Pigweed, Palmer plant response rating","pigweed, palmer [21]; [27]",100
same,"Plant response rating, Corn",corn [22]; [26],10
same,Corn plant response rating,corn [22]; [27],0
same,"Plant response rating, Rice (Flood)",rice,0
same,"Plant response rating, Oat, Wild","oat, wild [23]; [24]",10
same,"Plant response rating, Oat, Wild","oat, wild [23]; [25]",20
